Experimental data published in US11807644B2 (PMV Pharmaceuticals, Inc., priority 2020, dated 2023).

molecular target: T1, recombinant His-tag Y220C p53 DBD protein (Homo sapiens, UniProt P04637, Y220C); assay: In vitro DNA binding activity assay (TR-FRET): binding of His-tag Y220C p53 DBD to biotin-labeled consensus DNA; type: biochemical; details: SC150 = concentration to increase DNA binding by […], His-tag Y220C p53 DBD, biotin-labeled consensus DNA
T1 construct: recombinant His-tag Y220C p53 DBD protein (amino acids #˜94-312)

Structure (SMILES)	Y220C SC150 (μM)
CN1CC[C@@H](Nc2cccc3c2cc(-c2noc(CNC(=O)c4ccn(C(C)(C)C)n4)n2)n3CC(F)(F)F)[C@@H](F)C1 [Compound 529B, 1-tert-butyl-N-{[3-(4-{[(3S,4R)-3-fluoro-1-methylpiperidin-4-yl]amino}-1-(2,2,2-trifluoroethyl)-1H-indol-2-yl)-1,2,4-oxadiazol-5-yl]methyl}-1H-pyrazole-3-carboxamide]	* (* = 0 μM ≤ SC150 < 0.1 μM)
CC(C)c1nc(C(=O)NCc2nc(-c3cc4c(N[C@@H]5CCN(C)C[C@@H]5F)cccc4n3CC(F)(F)F)no2)cn1C [Compound 539B, N-{[3-(4-{[(3S,4R)-3-fluoro-1-methylpiperidin-4-yl]amino}-1-(2,2,2-trifluoroethyl)-1H-indol-2-yl)-1,2,4-oxadiazol-5-yl]methyl}-1-methyl-2-(propan-2-yl)-1H-imidazole-4-carboxamide]	* (* = 0 μM ≤ SC150 < 0.1 μM)
CN1CC[C@@H](Nc2cccc3c2cc(-c2noc(CNC(=O)c4ccn(C5CCCC5OCCF)c4)n2)n3CC(F)(F)F)[C@@H](F)C1 (stereo in doubt) [Compound 381B, N-{[3-(4-{[(3S,4R)-3-fluoro-1-methylpiperidin-4-yl]amino}-1-(2,2,2-trifluoroethyl)-1H-indol-2-yl)-1,2,4-oxadiazol-5-yl]methyl}-1-[(1R,2R)-2-(2-fluoroethoxy)cyclopentyl]-1H-pyrrole-3-carboxamide]	* (* = 0 μM ≤ SC150 < 0.1 μM)
CN1CC[C@@H](Nc2cccc3c2cc(-c2noc(CNC(=O)c4ccc(N5CCCC5)cc4)n2)n3CC(F)(F)F)[C@@H](F)C1 [Compound 243B, N-{[3-(4-{[(3S,4R)-3-fluoro-1-methylpiperidin-4-yl]amino}-1-(2,2,2-trifluoroethyl)-1H-indol-2-yl)-1,2,4-oxadiazol-5-yl]methyl}-4-(pyrrolidin-1-yl)benzamide]	* (* = 0 μM ≤ SC150 < 0.1 μM)
COCCN(C)c1nc(C(=O)NCc2nc(-c3cc4c(N[C@@H]5CCN(C)C[C@@H]5F)cccc4n3CC(F)(F)F)no2)cs1 [Compound 536B, N-{[3-(4-{1[(3S,4R)-3-fluoro-1-methylpiperidin-4-yl]amino}-1-(2,2,2-trifluoroethyl)-1H-indol-2-yl)-1,2,4-oxadiazol-5-yl]methyl}-2-[(2-methoxyethyl)(methyl)amino]-1,3-thiazole-4-carboxamide]	* (* = 0 μM ≤ SC150 < 0.1 μM)
O=S1(=O)CCC(Nc2cccc3c2cc(-c2cnn(Cc4cccnc4)c2)n3CC(F)(F)F)CC1 [Compound 16B, 4-[(2-{1-[(pyridin-3-yl)methyl]-1H-pyrazol-4-yl}-1-(2,2,2-trifluoroethyl)-1H-indol-4-yl)amino]-1λ^6-thiane-1,1-dione]	**** (**** = 1 μM ≤ SC150 < 10 μM)
Cn1cc(C(=O)NCc2nc(-c3cc4c(N[C@@H]5CCN(C(C)(C)C)C[C@@H]5F)cccc4n3CC(F)(F)F)no2)cn1 [Compound 405B, N-{[3-(4-{[(3S,4R)-1-tert-butyl-3-fluoropiperidin-4-yl]amino}-1-(2,2,2-trifluoroethyl)-1H-indol-2-yl)-1,2,4-oxadiazol-5-yl]methyl}-1-methyl-1H-pyrazole-4-carboxamide]	* (* = 0 μM ≤ SC150 < 0.1 μM)
CC(C)(C)n1cc(C(=O)NCc2nc(-c3cc4c(N[C@@H]5CCCC[C@@H]5F)cccc4n3CC(F)(F)F)no2)cn1 [Compound 331B, 1-tert-butyl-N-{[3-(4-{[(1R,2S)-2-fluorocyclohexyl]amino}-1-(2,2,2-trifluoroethyl)-1H-indol-2-yl)-1,2,4-oxadiazol-5-yl]methyl}-1H-pyrazole-4-carboxamide]	* (* = 0 μM ≤ SC150 < 0.1 μM)
CN1CC[C@@H](Nc2cccc3c2cc(-c2noc(CNC(=O)c4ccn(C5COC5)c4)n2)n3CC(F)(F)F)[C@@H](F)C1 [Compound 379B, N-{[3-(4-{[(3S,4R)-3-fluoro-1-methylpiperidin-4-yl]amino}-1-(2,2,2-trifluoroethyl)-1H-indol-2-yl)-1,2,4-oxadiazol-5-yl]methyl}-1-(oxetan-3-yl)-1H-pyrrole-3-carboxamide]	* (* = 0 μM ≤ SC150 < 0.1 μM)
CN1CC[C@@H](Nc2cccc3c2cc(-c2noc(CNC(=O)C4CC4)n2)n3CC(F)(F)F)[C@@H](F)C1 [Compound 173B, N-{[3-(4-{[(3S,4R)-3-fluoro-1-methylpiperidin-4-yl]amino}-1-(2,2,2-trifluoroethyl)-1H-indol-2-yl)-1,2,4-oxadiazol-5-yl]methyl}cyclopropanecarboxamide]	* (* = 0 μM ≤ SC150 < 0.1 μM)
CN1CC[C@@H](Nc2cccc3c2cc(-c2noc(CNC(=O)c4ccc(N(C)C)nc4)n2)n3CC(F)(F)F)[C@@H](F)C1 [Compound 557B, 6-(dimethylamino)-N-{[3-(4-{[(3S,4R)-3-fluoro-1-methylpiperidin-4-yl]amino}-1-(2,2,2-trifluoroethyl)-1H-indol-2-yl)-1,2,4-oxadiazol-5-yl]methyl}pyridine-3-carboxamide]	* (* = 0 μM ≤ SC150 < 0.1 μM)
CN1CC[C@@H](F)[C@@H](Nc2cccc3c2cc(-c2noc(CNC(=O)c4cnn(C(C)(C)C)c4)n2)n3CC(F)(F)F)C1 [Compound 409B, Tert-butyl-N-[[3-[4-[[(3S,4R)-4-fluoro-1-methyl-3-piperidyl]amino]-1-(2,2,2-trifluoroethyl)indol-2-yl]-1,2,4-oxadiazol-5-yl]methyl]pyrazole-4-carboxamide]	* (* = 0 μM ≤ SC150 < 0.1 μM)
CO[C@@H]1CCN(c2nc(C(=O)NCc3nc(-c4cc5c(N[C@@H]6CCN(C)C[C@@H]6F)cccc5n4CC(F)(F)F)no3)cs2)C1 [Compound 522B, N-{[3-(4-{[(3S,4R)-3-fluoro-1-methylpiperidin-4-yl]amino}-1-(2,2,2-trifluoroethyl)-1H-indol-2-yl)-1,2,4-oxadiazol-5-yl]methyl}-2-[(3R)-3-methoxypyrrolidin-1-yl]-1,3-thiazole-4-carboxamide]	* (* = 0 μM ≤ SC150 < 0.1 μM)
COCc1cc(C(=O)NCc2nc(-c3cc4c(N[C@@H]5CCN(C)C[C@@H]5F)cccc4n3CC(F)(F)F)no2)cc(C)n1 [Compound 551B, N-{[3-(4-{[(3S,4R)-3-fluoro-1-methylpiperidin-4-yl]amino}-1-(2,2,2-trifluoroethyl)-1H-indol-2-yl)-1,2,4-oxadiazol-5-yl]methyl}-2-(methoxymethyl)-6-methylpyridine-4-carboxamide]	* (* = 0 μM ≤ SC150 < 0.1 μM)
CCN1CC[C@@H](Nc2cccc3c2cc(-c2noc(CNC(=O)c4ccn(C5CCC(F)(F)C5)c4)n2)n3CC(F)(F)F)[C@@H](F)C1 (stereo partly drawn) [Compound 346B, 1-(3,3-difluorocyclopentyl)-N-{[3-(4-{[(3S,4R)-1-ethyl-3-fluoropiperidin-4-yl]amino}-1-(2,2,2-trifluoroethyl)-1H-indol-2-yl)-1,2,4-oxadiazol-5-yl]methyl}-1H-pyrrole-3-carboxamide]	* (* = 0 μM ≤ SC150 < 0.1 μM)
CN1CCC(Nc2cccc3c2cc(-c2nnc(CNC(=O)Cc4ccccc4)s2)n3CC(F)(F)F)CC1 [Compound 59B, N-[(5-{4-[(1-methylpiperidin-4-yl)amino]-1-(2,2,2-trifluoroethyl)-1H-indol-2-yl}-1,3,4-thiadiazol-2-yl)methyl]-2-phenylacetamide]	** (** = 0.1 μM ≤ SC150 < 0.5 μM)
CC(C)(C)n1ccc(C(=O)NCc2nc(-c3cc4c(N[C@@H]5CCC(=O)NC5)cccc4n3CC(F)(F)F)no2)c1 [Compound 367B, 1-tert-butyl-N-{[3-(4-{[(3R)-6-oxopiperidin-3-yl]amino}-1-(2,2,2-trifluoroethyl)-1H-indol-2-yl)-1,2,4-oxadiazol-5-yl]methyl}-1H-pyrrole-3-carboxamide]	* (* = 0 μM ≤ SC150 < 0.1 μM)
CN1CC[C@@H](Nc2cccc3c2cc(-c2nc(CNC(=O)C4CC4)no2)n3CC(F)(F)F)[C@@H](F)C1 (racemic) [Compound 275B, (+/−)-N-{[5-(4-{[(3R,4S)-3-fluoro-1-methylpiperidin-4-yl]amino}-1-(2,2,2-trifluoroethyl)-1H-indol-2-yl)-1,2,4-oxadiazol-3-yl]methyl}cyclopropanecarboxamide]	* (* = 0 μM ≤ SC150 < 0.1 μM)
CCN1CC[C@H](Nc2cccc3c2cc(-c2noc(CNC(=O)c4ccn(C(C)(C)C)c4)n2)n3CC(F)(F)F)[C@H](F)C1 [Compound 299B, 1-tert-butyl-N-{[3-(4-{[(3R,4S)-1-ethyl-3-fluoropiperidin-4-yl]amino}-1-(2,2,2-trifluoroethyl)-1H-indol-2-yl)-1,2,4-oxadiazol-5-yl]methyl}-1H-pyrrole-3-carboxamide]	* (* = 0 μM ≤ SC150 < 0.1 μM)
CN1CC[C@H](Nc2cccc3c2cc(-c2ccc(CNC(=O)c4ccccc4)s2)n3CC(F)(F)F)[C@H](F)C1 (racemic) [Compound 102B, (+/−)-N-{[5-(4-{[(3R,4S)-3-fluoro-1-methylpiperidin-4-yl]amino}-1-(2,2,2-trifluoroethyl)-1H-indol-2-yl)thiophen-2-yl]methyl}benzamide]	** (** = 0.1 μM ≤ SC150 < 0.5 μM)

same assay, conditions: concentration to increase DNA binding by […], incubated at either 27° C. or 29° C. for 60 min

Structure (SMILES)	SC150 (μM)
Cc1ccc(-c2cc3c(NC4CCS(=O)(=O)CC4)cccc3n2CC(F)(F)F)c(F)c1 [Compound 11A, 4-{[2-(2-fluoro-4-methylphenyl)-1-(2,2,2-trifluoroethyl)-1H-indol-4-yl]amino}-1λ^6-thiane-1,1-dione]	++++ (++++ = 10 μM ≤ SC150 < 35 μM)
CN1CC[C@H](Nc2cccc3c2cc(-c2ccc(CNC(=O)C4CC4)cc2)n3CC(F)(F)F)[C@H](F)C1 (racemic) [Compound 46A, (+/−)-N-{[4-(4-{[(3R,4S)-3-fluoro-1-methylpiperidin-4-yl]amino}-1-(2,2,2-trifluoroethyl)-1H-indol-2-yl)phenyl]methyl}cyclopropanecarboxamide]	+ (+ = 0 μM ≤ SC150 < 2 μM)
